Source: patent US12616201B2, “Herbicidal compositions comprising isoxaflutole” (BASF SE, priority 2024, dated 2026)

Key:
Echinochloa crus-galli = assay: Post-emergence application in field trials, ECHCG; type: in vivo
Description: (§1) In the examples below, using the method of S. R. Colby (1967) “Calculating synergistic and antagonistic responses of herbicide combinations”, Weeds 15, p. 22ff., the value E, which is expected if the activity of the individual active compounds is only additive, was calculated:
(§2) [formula] • where • X=percent activity using active herbicide A at an application rate a; • Y=percent activity using active herbicide B (i.e. isoxaflutole) at an application rate b; • E=expected activity (in %) by A+B at application rates a+b.
(§3) If the value found experimentally is higher than the value E calculated according to Colby, a synergistic effect is present.
(§4) On field test sites, natural weed infestation or seeded weeds were treated post-emergence of the weeds.
(§5) In the field trials, the weeds were treated as indicated below.
(§6) In the following experiments, the herbicidal activity for the individual herbicidal compositions (solo and mixture applications) was assessed at the indicated days after treatment (DAT). The assessments for the damage on undesired weeds caused by the composition was carried out using a scale from 0 to 100%, compared to the untreated control plants. Here, 0 means no damage and 100 means complete destruction of the plants.
(§7) Herbicide A-1 and isoxaflutole (240 g/l SC) were, together with addition of 0.25 v/v % MSO (methylated sed oil) as adjuvant, formulated in water as distribution medium (water volume 200 l/ha) and sprayed with commercial flat fan nozzles.
(§8) Herbicide A-1 and isoxaflutole (240 g/l SC, Balance Flexx®) were, together with addition of 0.25 v/v % MSO (methylated sed oil) as adjuvant, formulated in water as distribution medium (water volume 200 l/ha) and sprayed with commercial flat fan nozzles.
(§9) Herbicide A-1, isoxaflutole (240 g/l SC) and saflufenacil (342 g/l) were, together with addition of 0.25 v/v % MSO (methylated sed oil) as adjuvant, formulated in water as distribution medium (water volume 200 l/ha) and sprayed with commercial flat fan nozzles.
(§10) Herbicide A-1, isoxaflutole (240 g/l SC), saflufenacil (342 g/l) and pyroxasulfone were, together with addition of 0.25 v/v % MSO (methylated sed oil) as adjuvant, formulated in water as distribution medium (water volume 200 l/ha) and sprayed with commercial flat fan nozzles.

Lolium multiflorum = assay: Post-emergence application in field trials, LOLMU; type: in vivo; conditions: LOLMU height 20-25 cm, 100 g ai/ha
Description: as §1, §2, §3, §4, §5, §6, §10

Abuthilon theophrasti = assay: Post-emergence application in field trials, ABUTH; type: in vivo; conditions: ABUTH growth stage 14-16
Description: as §1, §2, §3, §4, §5, §6, §8

Spermacoce latifolia = assay: Post-emergence application in field trials, BOILF; type: in vivo; conditions: Table 1.1; BOILF growth stage 40; 21 DAT; 100 g ai/ha
Description: as §1, §2, §3, §4, §5, §6
Herbicide A-1 and isoxaflutole (75% WG) were, together with addition of 0.5 v/v % MSO (methylated sed oil) as adjuvant, formulated in water as distribution medium (water volume 200 l/ha) and sprayed with commercial flat fan nozzles.

Amaranthus retroflexus = assay: Post-emergence application in field trials, AMARE; type: in vivo
Description: as §1, §2, §3, §4, §5, §6, §8, §10

Hordeum vulgare = assay: Post-emergence application in field trials, HORVX; type: in vivo; conditions: HORVX growth stage 23-29
Description: as §1, §2, §3, §4, §5, §6, §8

Ipomoea triloba = assay: Post-emergence application in field trials, IPOTR; type: in vivo; conditions: Table 1.1; IPOTR growth stage 35; 21 DAT; 100 g ai/ha
Description: as §1, §2, §3, §4, §5
as §6, with “the plants. […]” for “the plants.”

Amaranthus hybridus = assay: Post-emergence application in field trials, AMACH; type: in vivo; conditions: Table 1.1; AMACH growth stage 35; 21 DAT; 100 g ai/ha
Description: as §1, §2, §3, §4, §5
as §6, with “the plants. […]” for “the plants.”

Zea mays = assay: Post-emergence application in field trials, ZEAMX; type: in vivo
Description: as §1, §2, §3, §4, §5, §6, §7, §8, §9, §10

Datura stramonium = assay: Post-emergence application in field trials, DATST; type: in vivo; conditions: 100 g ai/ha
Description: as §1, §2, §3, §4, §5, §6, §7, §9

HORVW = assay: Post-emergence application in field trials, HORVW; type: in vivo, Hordeum vulgare; conditions: HORVW height 20-25 cm, 100 g ai/ha
Description: as §1, §2, §3, §4, §5, §6, §10

Euphorbia heterophylla = assay: Post-emergence application in field trials, EPHHL; type: in vivo; conditions: Table 1.1; EPHHL growth stage 35; 21 DAT; 100 g ai/ha
Description: as §1, §2, §3, §4, §5
as §6, with “the plants. […]” for “the plants.”

Setaria verticillata = assay: Post-emergence application in field trials, SETVE; type: in vivo; conditions: SETVE growth stage 21-23
Description: as §1, §2, §3, §4, §5, §6, §7, §8

Glycine max = assay: Post-emergence application in field trials, GLXMA; type: in vivo; conditions: GLXMA growth stage 13, 100 g ai/ha
Description: as §1, §2, §3, §4, §5, §6, §7

CS(=O)(=O)c1cc(C(F)(F)F)ccc1C(=O)c1cnoc1C1CC1 [B, isoxaflutole]
% herbicidal activity (Echinochloa crus-galli; Table 2.1, ECHCG growth stage 23-30, 7 DAT, 100 g ai/ha): 40%
% herbicidal activity (Echinochloa crus-galli; Table 3.1, ECHCG growth stage 23-30, 7 DAT, 80 g ai/ha): 70%
% herbicidal activity (Echinochloa crus-galli; Table 3.2, ECHCG growth stage 23-30, 21 DAT, 56 g ai/ha): 80%
% herbicidal activity (Echinochloa crus-galli; Table 3.2, ECHCG growth stage 23-30, 21 DAT, 80 g ai/ha): 80%
% herbicidal activity (Echinochloa crus-galli; Table 4.1, ECHCG growth stage 23-30, height 15-20 cm, 7 DAT, 100 g ai/ha): 40%
% herbicidal activity (Echinochloa crus-galli; Table 5.4, ECHCG height 15-20 cm, 7 DAT, 100 g ai/ha): 40%
% herbicidal activity (Lolium multiflorum; Table 5.4, 7 DAT): 20%
% herbicidal activity (Lolium multiflorum; Table 5.8, 21 DAT): 20%
% herbicidal activity (Abuthilon theophrasti; Table 3.1, 7 DAT, 56 g ai/ha): 40%
% herbicidal activity (Abuthilon theophrasti; Table 3.2, 21 DAT, 56 g ai/ha): 45%
% herbicidal activity (Abuthilon theophrasti; Table 3.2, 21 DAT, 80 g ai/ha): 65%
% herbicidal activity (Abuthilon theophrasti; Table 3.4, 42 DAT, 56 g ai/ha): 45%
% herbicidal activity (Abuthilon theophrasti; Table 3.4, 42 DAT, 80 g ai/ha): 60%
% herbicidal activity (Spermacoce latifolia): 27%
% herbicidal activity (Amaranthus retroflexus; Table 3.4, AMARE growth stage 31-49, 42 DAT, 80 g ai/ha): 45%
% herbicidal activity (Amaranthus retroflexus; Table 5.4, AMARE height 8-20 cm, 7 DAT, 100 g ai/ha): 30%
% herbicidal activity (Hordeum vulgare; Table 3.1, 7 DAT, 56 g ai/ha): 10%
% herbicidal activity (Hordeum vulgare; Table 3.1, 7 DAT, 80 g ai/ha): 10%
% herbicidal activity (Hordeum vulgare; Table 3.2, 21 DAT, 56 g ai/ha): 10%
% herbicidal activity (Hordeum vulgare; Table 3.2, 21 DAT, 80 g ai/ha): 10%
% herbicidal activity (Ipomoea triloba): 19%
% herbicidal activity (Amaranthus hybridus): 30%
% herbicidal activity (Zea mays; Table 2.1, ZEAMX growth stage 15-16, 7 DAT, 100 g ai/ha): 10%
% herbicidal activity (Zea mays; Table 3.2, ZEAMX growth stage 15-16, 21 DAT, 56 g ai/ha): 0%
% herbicidal activity (Zea mays; Table 3.2, ZEAMX growth stage 15-16, 21 DAT, 80 g ai/ha): 0%
% herbicidal activity (Zea mays; Table 3.3, ZEAMX growth stage 15-16, 28 DAT, 56 g ai/ha): 0%
% herbicidal activity (Zea mays; Table 4.1, ZEAMX growth stage 15-16, height 25-30 cm, 7 DAT, 100 g ai/ha): 10%
% herbicidal activity (Zea mays; Table 5.12, 7 DAT, height 25-30 cm, B 100 g ai/ha): 10%
% herbicidal activity (Zea mays; Table 5.4, ZEAMX height 25-30 cm, 7 DAT, 100 g ai/ha): 10%
% herbicidal activity (Zea mays; Table 5.5, ZEAMX height 25-30 cm, 21 DAT, 100 g ai/ha): 7%
% herbicidal activity (Zea mays; Table 5.6, ZEAMX height 25-30 cm, 28 DAT, 100 g ai/ha): 0%
% herbicidal activity (Zea mays; Table 5.7, ZEAMX height 25-30 cm, 7 DAT, 100 g ai/ha): 10%
% herbicidal activity (Zea mays; Table 5.8, ZEAMX height 25-30 cm, 21 DAT, 100 g ai/ha): 7%
% herbicidal activity (Zea mays; Table 5.9, ZEAMX height 25-30 cm, 28 DAT, 100 g ai/ha): 0%
% herbicidal activity (Datura stramonium; Table 2.1, DATST growth stage 14-16, 7 DAT): 25%
% herbicidal activity (Datura stramonium; Table 2.3, DATST growth stage 14-16, 21 DAT): 50%
% herbicidal activity (Datura stramonium; Table 4.2, DATST growth stage 14-16, height 5-10 cm, 42 DAT): 50%
% herbicidal activity (HORVW; Table 5.5, 21 DAT): 10%
% herbicidal activity (HORVW; Table 5.6, 28 DAT): 10%
% herbicidal activity (HORVW; Table 5.8, 21 DAT): 10%
% herbicidal activity (Euphorbia heterophylla): 22%
% herbicidal activity (Setaria verticillata; Table 2.1, 7 DAT, 100 g ai/ha): 20%
% herbicidal activity (Setaria verticillata; Table 3.4, 42 DAT, 56 g ai/ha): 20%
% herbicidal activity (Glycine max; Table 2.1, 7 DAT): 25%
% herbicidal activity (Glycine max; Table 2.2, 21 DAT): 35%
% herbicidal activity (Glycine max; Table 2.3, 21 DAT): 40%
